Measured values reported in ChEMBL document CHEMBL1781940, “Cytotoxic and PPARs transcriptional activities of sterols from the Vietnamese soft coral Lobophytum laevigatum” (Bioorg Med Chem Lett, 2011).
The source made the active and inactive calls. The calls are words filed in the database; no cut-off is given here.

Key:
HCT-116 [1] = assay: Cytotoxicity against human HCT116 cells after 24 hrs by MTT assay; assay type: functional, cell-based; conditions: for IC50: HCT-116, 24 h
A549 [2] = assay: Induction of apoptosis in human A549 cells assessed as chromatin condensation apoptotic bodies at 4.5 uM after 24 hrs using Hoechst 33342 staining and fluorescent microscopy; assay type: functional, cell-based
HCT-116 [3] = assay: Induction of apoptosis in human HCT116 cells assessed as chromatin condensation apoptotic bodies at 3.2 uM after 24 hrs using Hoechst 33342 staining and fluorescent microscopy; assay type: functional, cell-based
HL-60 [4] = assay: Cytotoxicity against human HL60 cells after 24 hrs by MTT assay; assay type: functional, cell-based; conditions: for IC50: HL-60, 24 h
A549 [5] = assay: Cytotoxicity against human A549 cells after 24 hrs by MTT assay; assay type: functional, cell-based; conditions: for IC50: A549, 24 h
HL-60 [6] = assay: Induction of apoptosis in human HL60 cells assessed as chromatin condensation apoptotic bodies at 5.6 uM after 24 hrs using Hoechst 33342 staining and fluorescent microscopy; assay type: functional, cell-based
HepG2 [7] = assay: Transactivation of PPAR transcriptional activity expressed in human HepG2 cells co-expressing PPRE-Luc after 24 hrs by luciferase reporter gene assay relative to negative control; assay type: cell-based
HepG2 [8] = assay: Transactivation of PPAR transcriptional activity expressed in human HepG2 cells co-expressing PPRE-Luc at 1 uM after 24 hrs by luciferase reporter gene assay relative to negative control; assay type: cell-based
HepG2 [9] = assay: Transactivation of PPAR transcriptional activity expressed in human HepG2 cells co-expressing PPRE-Luc at 10 uM after 24 hrs by luciferase reporter gene assay relative to negative control; assay type: cell-based

Structure (SMILES) | IC50 (HCT-116 [1]) [µM] | Activity (A549 [2]) | Activity (HCT-116 [3]) | IC50 (HL-60 [4]) [µM] | IC50 (A549 [5]) [µM] | Activity (HL-60 [6]) | Activity (HepG2 [7]) | fold change (FC) (HepG2 [8]) | Activity (HCT-116 [1]) | Activity (HL-60 [4]) | Activity (A549 [5]) | fold change (FC) (HepG2 [9])
CC(C)[C@H](C)[C@H](C)[C@@H](O)[C@]1(C)O[C@]12CC[C@H]1[C@@H]3CC[C@H]4[C@H](C)[C@@H](O)CC[C@]4(C)[C@H]3CC[C@@]12C [LOBOPHYTOSTEROL] | 3.2 | Active | Active | 5.6 | 4.5 | Active |  |  |  |  |  | 
CC(C)[C@@H](C)CC[C@@H](C)[C@H]1CC[C@H]2[C@@H]3[C@H](O)C=C4C[C@@H](O)CC[C@]4(C)[C@H]3CC[C@]12C |  |  |  |  |  |  | Dose-dependent effect | 1.2 | inactive | inactive | inactive | 2.5
C[C@H]1C[C@]2(O[C@H]3C[C@H]4[C@@H]5CC=C6C[C@@H](O)CC[C@]6(C)[C@H]5CC[C@]4(C)[C@H]3[C@@]2(C)O)OC1(C)C | 6.9 |  |  | > 20 | > 20 |  | Dose-dependent effect | 1.4 |  |  |  | 2
C[C@H](CC[C@H](C)C(C)(C)O)[C@H]1CC[C@H]2[C@@H]3CC=C4C[C@@H](O)CC[C@]4(C)[C@H]3CC[C@]12C | 18.1 |  |  | > 20 | > 20 |  |  |  |  |  |  | 
CC(C)CCC[C@@H](C)[C@H]1CC[C@H]2[C@@H]3CC=C4C[C@@H](O)CC[C@]4(C)[C@H]3CC[C@]12C |  |  |  |  |  |  |  |  | inactive | inactive | inactive | 
O=C1c2c(O)ccc(O)c2C(=O)c2c(NCCNCCO)ccc(NCCNCCO)c21 [MITOXANTRONE] |  |  |  | 8.2 |  |  |  |  |  |  |  | 
CC(=O)[C@H]1CC[C@H]2[C@@H]3CC=C4C[C@@H](O)CC[C@]4(C)[C@H]3CC[C@]12C |  |  |  |  |  |  | Dose-dependent effect | 1.6 | inactive | inactive | inactive | 2.1
